# Reference: the supplement of paper PMC10307832
# Assays:
# Test in all cases: relative viability (nuclei count vs DMSO), 5 days (fraction); higher = more cells survive
# [1] = compound: C=CC(=O)N1CCC[C@@H](n2nc(-c3ccc(Oc4ccccc4)cc3)c3c(N)ncnc32)C1 [Ibrutinib] + Cc1nc(NC(=O)N2CCC[C@H]2C(N)=O)sc1-c1ccnc(C(C)(C)C(F)(F)F)c1 [Alpelisib] (partner 2 µM)
# Outline: (§1)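 One day after seeding in 1536-well plates, lung cancer cell lines were dosed by pin tool. Dosing was either single-drug or a fixed anchor-drug dose plus five library-drug doses (not always all listed) in √10 steps. After 5 days, nuclei were stained in one fix-and-stain step and counted on 4× images, and relative viability is the nuclei count of treated wells over that of vehicle wells, given as the median of duplicate plates.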
# [2] = compound: C=CCc1cccc(/C=N/NC(=O)CN2CCN(Cc3ccccc3)CC2)c1O [PAC-1] + CCNC(=O)c1noc(-c2cc(C(C)C)c(O)cc2O)c1-c1ccc(CN2CCOCC2)cc1 [Luminespib] (partner 0.01 µM)
# Outline: as §1
# [3] = compound: C=CC(=O)N1CCC[C@@H](n2nc(-c3ccc(Oc4ccccc4)cc3)c3c(N)ncnc32)C1 [Ibrutinib] + CS(=O)(=O)CCNCc1ccc(-c2ccc3ncnc(Nc4ccc(OCc5cccc(F)c5)c(Cl)c4)c3c2)o1 [Lapatinib] (partner 2 µM)
# Outline: as §1
# [4] = compound: C=CC(=O)Nc1cc(-n2c(=O)ccc3cnc4ccc(-c5ccc(NS(C)(=O)=O)cc5)cc4c32)ccc1C [BMX-IN-1] + Nc1ncn([C@H]2C[C@H](O)[C@@H](CO)O2)c(=O)n1 [Decitabine] (partner 2 µM)
# Outline: as §1
cell line,measurement,setting,value
SK-MES-1,relative viability,[1]; first compound 0.005 µM,0.441
same,relative viability,[1]; first compound 0.01581 µM,0.842
same,relative viability,[1]; first compound 0.05 µM,0.599
same,relative viability,[1]; first compound 0.1581 µM,1
same,relative viability,[1]; first compound 0.5 µM,0.379
same,relative viability,[2]; first compound 0.02 µM,0.723
same,relative viability,[2]; first compound 0.06325 µM,0.805
same,relative viability,[2]; first compound 0.2 µM,0.726
same,relative viability,[2]; first compound 2 µM,0.56
same,relative viability,[3]; first compound 0.005 µM,0.506
same,relative viability,[3]; first compound 0.01581 µM,0.456
same,relative viability,[3]; first compound 0.05 µM,0.461
same,relative viability,[3]; first compound 0.1581 µM,0.446
same,relative viability,[3]; first compound 0.5 µM,0.441
same,relative viability,[4]; first compound 0.02 µM,0.398
same,relative viability,[4]; first compound 0.2 µM,0.432
same,relative viability,[4]; first compound 0.6325 µM,0.425
same,relative viability,[4]; first compound 2 µM,0.637
